BigSolDB 2.1

CC(=O)Nc1ccc(CC(=O)O)cc1
solubility (mole fraction)
Settings | 278.15 K | 283.15 K | 288.15 K | 293.15 K | 298.15 K | 303.15 K | 308.15 K | 313.15 K | 318.15 K
in 2-butanone | 0.00496 | 0.00586 | 0.00689 | 0.00821 | 0.00975 | 0.0115 | 0.0137 | 0.0162 | 0.0192
in acetone | 0.00366 | 0.00441 | 0.00534 | 0.00646 | 0.0078 | 0.00942 | 0.0114 | 0.0136 | 0.0161
in acetonitrile | 0.00093 | 0.00116 | 0.00142 | 0.00175 | 0.00215 | 0.00262 | 0.00318 | 0.00381 | 0.00455
in cyclohexane | – | 1.89e-06 | 2.51e-06 | 3.4e-06 | 4.44e-06 | 5.83e-06 | 7.44e-06 | 9.5e-06 | 1.21e-05
in ethanol | 0.0062 | 0.00723 | 0.00851 | 0.0102 | 0.0121 | 0.0143 | 0.0171 | 0.0201 | 0.0238
in ethyl acetate | 0.000627 | 0.000783 | 0.000985 | 0.00126 | 0.00156 | 0.00193 | 0.00238 | 0.00291 | 0.00357
in isopropanol | 0.00293 | 0.00353 | 0.00437 | 0.0054 | 0.00666 | 0.00823 | 0.0101 | 0.0123 | 0.0149
in methanol | 0.00792 | 0.00927 | 0.0113 | 0.0138 | 0.0169 | 0.0207 | 0.0249 | 0.0303 | 0.0369
in n-butanol | 0.00401 | 0.0048 | 0.0058 | 0.00711 | 0.00871 | 0.0105 | 0.0126 | 0.0149 | 0.0178
in n-propanol | 0.00538 | 0.00628 | 0.00745 | 0.00889 | 0.0105 | 0.0126 | 0.0149 | 0.0175 | 0.0204
in toluene | 2.62e-06 | 3.44e-06 | 4.5e-06 | 5.88e-06 | 7.6e-06 | 9.71e-06 | 1.24e-05 | 1.59e-05 | 2.04e-05
in water | 0.000163 | 0.000208 | 0.000264 | 0.000336 | 0.000421 | 0.000534 | 0.000661 | 0.000826 | 0.00104
